Results published in patent US6737383B1, “Herbicidal oxadiazolidines” (priority 1999, dated 2004).

Assays:
bamyardgrass = experiment: Test B flood test barnyardgrass; type: in vivo, Echinochloa crus-galli
In short: (§1)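 Each value is a visual injury score relative to controls, with 10 meaning complete control and 0 no effect. Evaluation took place twelve to sixteen days after the 2-leaf-stage plants were treated and kept in the greenhouse.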

bedstraw = experiment: Test B pre/postemergence bedstraw; type: in vivo, Galium aparine; details: for Bedstraw plant response rating: Postemergence; for Plant response rating, Bedstraw: Preemergence
In short: (§2)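 Test chemicals in a non-phytotoxic solvent mixture with surfactant were sprayed preemergence onto planted seeds and postemergence onto plants 2 to 18 cm tall (1- to 4-leaf stage). After twelve to sixteen days in a greenhouse, injury was visually rated against untreated controls from 0 (no effect) to 10 (complete control).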

velvetleaf = experiment: Test B pre/postemergence velvetleaf; type: in vivo, Abutilon theophrasti; details: for Plant response rating, Velvetleaf: scale of 0 to 10 where 0 is no effect and 10 is complete control
In short: as §2

giant foxtail = experiment: Test B pre/postemergence giant foxtail; type: in vivo, Setaria faberii
In short: as §2

pigweed = experiment: Test B pre/postemergence pigweed; type: in vivo, Amaranthus retroflexus; details: for Plant response rating, Redroot pigweed: scale of 0 to 10 where 0 is no effect and 10 is complete control
In short: as §2

smallflower flatsedge = experiment: Test B flood test smallflower flatsedge; type: in vivo, Cyperus difformis
In short: as §1

surinam grass = experiment: Test B pre/postemergence surinam grass; type: in vivo, Brachiaria decumbens
In short: as §2

sugar beet = experiment: Test B pre/postemergence sugar beet; type: in vivo, Beta vulgaris; details: for Plant response rating, Sugarbeets: scale of 0 to 10 where 0 is no effect and 10 is complete control
In short: as §2

cocklebur = experiment: Test B pre/postemergence cocklebur; type: in vivo, Xanthium strumarium
In short: as §2

corn = experiment: Test B pre/postemergence corn; type: in vivo, Zea mays
In short: as §2

rape = experiment: Test B pre/postemergence rape; type: in vivo, Brassica napus; details: for Plant response rating, Rape: scale of 0 to 10 where 0 is no effect and 10 is complete control
In short: as §2

crabgrass = experiment: Test B pre/postemergence crabgrass; type: in vivo, Digitaria sanguinalis
In short: as §2

wild oat = experiment: Test B pre/postemergence wild oat; type: in vivo, Avena fatua; details: for Plant response rating, Wild oats: scale of 0 to 10 where 0 is no effect and 10 is complete control
In short: as §2

morningglory = experiment: Test B pre/postemergence morningglory; type: in vivo, Ipomoea hederacea; details: for Plant response rating, Morningglory: scale of 0 to 10 where 0 is no effect and 10 is complete control
In short: as §2

rice = experiment: Test B flood test rice; type: in vivo, Oryza sativa
In short: as §1

blackgrass = experiment: Test B pre/postemergence blackgrass; type: in vivo, Alopecurus myosuroides
In short: as §2

[1] = Rate 62 g/ha, flood test species, Pre-emergence, visual evaluation after twelve to sixteen days
[2] = Rate 125 g/ha, under heading Pre-emergence, flood test species, visual evaluation after twelve to sixteen days
[3] = Rate 250 g/ha, Pre-emergence (flood test species), scale 0 to 10, 0 is no effect, 10 is complete control
[4] = Rate 500 g/ha, Pre-emergence, flood test species, scale 0 to 10 (0 no effect, 10 complete control)
[5] = Postemergence, Rate 250 g/ha, scale 0 to 10
[6] = Preemergence, Rate 250 g/ha, scale 0 to 10, 0 is no effect, 10 is complete control
[7] = Preemergence, Rate 500 g/ha, scale 0 to 10, 0 is no effect, 10 is complete control
[8] = Rate 62 g/ha, Postemergence, scale 0 to 10, 0 no effect, 10 complete control
[9] = Rate 125 g/ha, Postemergence, scale 0 to 10, 0 is no effect, 10 is complete control
[10] = Postemergence, Rate 500 g/ha, scale of 0 to 10 where 0 is no effect and 10 is complete control
[11] = Preemergence, Rate 62 g/ha, scale of 0 to 10 where 0 is no effect and 10 is complete control
[12] = Preemergence, Rate 125 g/ha, scale of 0 to 10 where 0 is no effect and 10 is complete control

CC[Si](C)(C)Cn1c(=O)on(C(=O)N(c2ccc(F)cc2)C(C)C)c1=O [Compound 459]
Plant response rating, Barnyardgrass (0 to 10 scale, 0 is no effect, 10 is complete control) (bamyardgrass; [1]): 0 | Barnyardgrass plant response rating (0 to 10 scale, 0 is no effect, 10 is complete control) (bamyardgrass; [2]): 0 | Barnyardgrass plant response rating (bamyardgrass; [3]): 0 | Barnyardgrass plant response rating (bamyardgrass; [4]): 0 | Bedstraw plant response rating (bedstraw; Rate 250 g/ha, scale 0 to 10): 6 | Bedstraw plant response rating (bedstraw; Rate 500 g/ha, scale of 0 to 10 where 0 is no effect and 10 is complete control): 8 | Plant response rating, Bedstraw (bedstraw; Rate 62 g/ha, scale of 0 to 10 where 0 is no effect and 10 is complete control): 0 | Plant response rating, Bedstraw (bedstraw; Rate 125 g/ha, scale of 0 to 10 where 0 is no effect and 10 is complete control): 0 | Velvetleaf plant response rating (velvetleaf; [5]): 0 | Plant response rating, Velvetleaf (velvetleaf; Preemergence, Rate 62 g/ha): 0 | Plant response rating, Velvetleaf (velvetleaf; Preemergence, Rate 125 g/ha): 0 | Velvetleaf plant response rating (velvetleaf; [6]): 0 | Velvetleaf plant response rating (velvetleaf; [7]): 0 | Velvetleaf plant response rating (velvetleaf; [8]): 0 | Velvetleaf plant response rating (velvetleaf; [9]): 0 | Giant foxtail plant response rating (giant foxtail; [5]): 2 | Giant foxtail plant response rating (giant foxtail; [10]): 5 | Plant response rating, Giant foxtail (giant foxtail; [11]): 8 | Plant response rating, Giant foxtail (giant foxtail; [12]): 9 | Giant foxtail plant response rating (giant foxtail; [6]): 10 | Giant foxtail plant response rating (giant foxtail; [7]): 10 | Giant foxtail plant response rating (giant foxtail; [8]): 0 | Giant foxtail plant response rating (giant foxtail; [9]): 0 | Redroot pigweed plant response rating (pigweed; [5]): 0 | Plant response rating, Redroot pigweed (pigweed; Preemergence, Rate 62 g/ha): 0 | Plant response rating, Redroot pigweed (pigweed; Preemergence, Rate 125 g/ha): 0 | Redroot pigweed plant response rating (pigweed; [6]): 4 | Redroot pigweed plant response rating (pigweed; [7]): 7 | Redroot pigweed plant response rating (pigweed; [8]): 0 | Redroot pigweed plant response rating (pigweed; [9]): 0 | Plant response rating, S. Flatsedge (0 to 10 scale, 0 is no effect, 10 is complete control) (smallflower flatsedge; [1]): 0 | S. Flatsedge plant response rating (0 to 10 scale, 0 is no effect, 10 is complete control) (smallflower flatsedge; [2]): 0 | S. Flatsedge plant response rating (smallflower flatsedge; [3]): 0 | S. Flatsedge plant response rating (smallflower flatsedge; [4]): 0 | B. signalgrass plant response rating (surinam grass; Postemergence, Rate 250 g/ha, scale 0 to 10, 0 no effect, 10 complete control): 0 | B. signalgrass plant response rating (surinam grass; [10]): 0 | Plant response rating, B. signalgrass (surinam grass; [11]): 0 | Plant response rating, B. signalgrass (surinam grass; [12]): 0 | B. signalgrass plant response rating (surinam grass; [6]): 1 | B. signalgrass plant response rating (surinam grass; [7]): 1 | B. signalgrass plant response rating (surinam grass; [8]): 0 | B. signalgrass plant response rating (surinam grass; [9]): 0 | Sugarbeets plant response rating (sugar beet; [5]): 0 | Plant response rating, Sugarbeets (sugar beet; Preemergence, Rate 62 g/ha): 0 | Plant response rating, Sugarbeets (sugar beet; Preemergence, Rate 125 g/ha): 0 | Sugarbeets plant response rating (sugar beet; [6]): 0 | Sugarbeets plant response rating (sugar beet; [7]): 0 | Sugarbeets plant response rating (sugar beet; [8]): 0 | Sugarbeets plant response rating (sugar beet; [9]): 0 | Cocklebur plant response rating (cocklebur; [5]): 0 | Cocklebur plant response rating (cocklebur; [10]): 0 | Plant response rating, Cocklebur (cocklebur; [11]): 0 | Plant response rating, Cocklebur (cocklebur; [12]): 0 | Cocklebur plant response rating (cocklebur; [6]): 0 | Cocklebur plant response rating (cocklebur; [7]): 0 | Cocklebur plant response rating (cocklebur; [8]): 0 | Cocklebur plant response rating (cocklebur; [9]): 0 | Corn plant response rating (corn; [5]): 0 | Corn plant response rating (corn; [10]): 0 | Plant response rating, Corn (corn; [11]): 0 | Plant response rating, Corn (corn; [12]): 0 | Corn plant response rating (corn; [6]): 0 | Corn plant response rating (corn; [7]): 0 | Corn plant response rating (corn; [8]): 0 | Corn plant response rating (corn; [9]): 0 | Rape plant response rating (rape; [5]): 0 | Plant response rating, Rape (rape; Preemergence, Rate 62 g/ha): 0 | Plant response rating, Rape (rape; Preemergence, Rate 125 g/ha): 0 | Rape plant response rating (rape; [6]): 0 | Rape plant response rating (rape; [7]): 0 | Rape plant response rating (rape; [8]): 0 | Rape plant response rating (rape; [9]): 0 | Crabgrass plant response rating (crabgrass; [5]): 5 | Crabgrass plant response rating (crabgrass; [10]): 8 | Plant response rating, Crabgrass (crabgrass; [11]): 5 | Plant response rating, Crabgrass (crabgrass; [12]): 7 | Crabgrass plant response rating (crabgrass; [6]): 9 | Crabgrass plant response rating (crabgrass; [7]): 10 | Crabgrass plant response rating (crabgrass; [8]): 0 | Crabgrass plant response rating (crabgrass; [9]): 1 | Wild oats plant response rating (wild oat; [5]): 0 | Plant response rating, Wild oats (wild oat; Preemergence, Rate 62 g/ha): 0 | Plant response rating, Wild oats (wild oat; Preemergence, Rate 125 g/ha): 0 | Wild oats plant response rating (wild oat; [6]): 0 | Wild oats plant response rating (wild oat; [7]): 0 | Wild oats plant response rating (wild oat; [8]): 0 | Wild oats plant response rating (wild oat; [9]): 0 | Plant response rating, Morningglory (morningglory; Preemergence, Rate 62 g/ha): 0 | Plant response rating, Morningglory (morningglory; Preemergence, Rate 125 g/ha): 0 | Morningglory plant response rating (morningglory; [6]): 0 | Morningglory plant response rating (morningglory; [7]): 0 | Morningglory plant response rating (morningglory; [8]): 6 | Morningglory plant response rating (morningglory; [9]): 8 | Plant response rating, Rice (0 to 10 scale, 0 is no effect, 10 is complete control) (rice; [1]): 0 | Rice plant response rating (0 to 10 scale, 0 is no effect, 10 is complete control) (rice; [2]): 0 | Rice plant response rating (rice; [3]): 0 | Rice plant response rating (rice; [4]): 0 | Blackgrass plant response rating (blackgrass; [5]): 8 | Blackgrass plant response rating (blackgrass; [10]): 8 | Plant response rating, Blackgrass (blackgrass; [11]): 0 | Plant response rating, Blackgrass (blackgrass; [12]): 0 | Blackgrass plant response rating (blackgrass; [6]): 5 | Blackgrass plant response rating (blackgrass; [7]): 6 | Blackgrass plant response rating (blackgrass; [8]): 0 | Blackgrass plant response rating (blackgrass; [9]): 1
